Measurements as given in patent publication US20240092759A1, “Non-Covalent Inhibitors of the Main Protease of SARS-CoV-2 and Methods of Use” (YALE UNIVERSITY, priority 2021, published 2024).
Read-outs that look alike come from different tables or passages of the source.

Tests used:
SARS-CoV-2 replicon = experiment: microbe, parasite or virus in culture; type: cell-based; conditions: for IC50: Severe acute respiratory syndrome coronavirus 2, dose-response curves of FIGS. 6A-6B, read-out: IC50, replicon assay, compound alone
[1] = target: recombinant SARS-Cov-2 M^pro (Severe acute respiratory syndrome coronavirus 2 (2019-nCoV) (SARS-CoV-2), UniProt P0DTD1); experiment: biochemical
[2] = test system: infectious SARS-CoV-2 (isolate USA-WA1/2020); experiment: Antiviral assay, cytopathic effect by MTT in Vero E6 cells; type: cell-based; conditions: for EC50: Severe acute respiratory syndrome coronavirus 2, Vero C1008
[3] = test system: normal human bronchial epithelial cells (NHBE); experiment: Cellular cytotoxicity by MTT in normal human bronchial epithelial cells; conditions: read-out: CC50 NHBE; MTT
Vero E6 cells = experiment: Cellular cytotoxicity by MTT in Vero E6 cells; conditions: for CC50: read-out: CC50 Vero E6, absence of virus
[4] = test system: infectious SARS-CoV-2 (isolate USA-WA1/2020); experiment: microbe, parasite or virus in culture; type: cell-based
[5] = combination with remdesivir, MacSynergy II

N#Cc1ccccc1-c1cc(-c2cc(Cl)cc(Cl)c2)c(=O)n(-c2cccnc2)c1 [Compound 9, 2-(3-(3,5-Dichlorophenyl)-2-oxo-2H-[1,3′-bipyridin]-5-yl)benzonitrile]
IC50 (SARS-CoV-2 replicon): 93.8 nM | combination behavior (SARS-CoV-2 replicon; combination with EIDD-1931): synergistic effect | IC50 ([1]; IC50): 4.2 µM | IC50 ([1]; read-out: IC50 (μM), inhibition of SARS-Cov-2 M^pro, Table 4): 4.02 ± 1.36 µM

CCCOc1cc(Cl)cc(-c2cc(-c3ccccc3C#N)cn(-c3cccnc3)c2=O)c1 [Compound 13, 2-(3-(3-Chloro-5-propoxyphenyl)-2-oxo-2H-[1,3′-bipyridin]-5-yl)benzonitrile]
EC50 ([2]; Vero E6 cells, MOI 0.01, 72 h, NA = not active, read-out: EC50 MTT): 2500 ± 700 nM | EC50 ([2]; read-out: EC50, MTT assay): 2500 nM | CC50 [3]: 20000 ± 2000 nM | CC50 (Vero E6 cells): 22000 nM | combination behavior (SARS-CoV-2 replicon; combination with remdesivir): statistically significant synergistic behavior | antagonism volume (SARS-CoV-2 replicon; [5]): 0 μM^2% | mean synergy volume (SARS-CoV-2 replicon; [5]): 30.8 μM^2% | factor of improvement in potency over 9 ([1]; ratio of IC50 values): ca. 30

O=c1[nH]cc(-c2cc(-c3cc(Cl)c(F)c(OCc4ccccc4Cl)c3)c(=O)n(-c3cccnc3)c2)c(=O)[nH]1 [Compound 44, 5-(3-(3-Chloro-5-((2-chlorobenzyl)oxy)-4-fluorophenyl)-2-oxo-2H-[1,3′-bipyridin]-5-yl)pyrimidine-2,4(1H,3H)-dione]
antiviral activity in the MTT assay [2]: lacked antiviral activity | CC50 [3]: 3500 ± 1000 nM | cytotoxicity (Vero E6 cells; Vero E6 and NHBE cells): greatest cytotoxicity | CC50 (Vero E6 cells): 1150 ± 500 nM | antiviral activity in the viral plaque assay [4]: showed activity | EC50 ([4]; Severe acute respiratory syndrome coronavirus 2, Vero C1008, Vero E6 cells, MOI 0.01, read-out: EC50 Plaque): 840 nM

O=c1nc(NO)ccn1[C@@H]1O[C@H](CO)C(O)[C@@H]1O (stereo partly shown) [EIDD-1931, reference compound]
IC50 (SARS-CoV-2 replicon): 2230 nM
